Experimental data: paper PMC11659602, “Discovering covalent cyclic peptide inhibitors of peptidyl arginine deiminase 4 (PADI4) using mRNA-display with a genetically encoded electrophilic warhead” (Communications Chemistry, 2024)
“And” between values parts separate entries of the source, which are not always exact repeats. Equal entries are not always repeated. Where two headings read alike, the source gives them in different places. Where a SMILES comes first, the peptide text is derived from it. Bridges are numbered along the chain shown (N, C = ends). [ ]: non-standard residue; d: D form. Orn(fluoroacetimidoyl) = N=C(CF)NCCC[C@H](N)C(=O)O

Key:
Format in all cases: biochemical
[1] = target: T1, PADI4 (Homo sapiens, UniProt Q9UM07); test: COLDER inhibition assay, BAEE substrate, with or without 1 h preincubation; settings: for IC50: COLDER; for remaining activity at 0.003 µM: peptide 0.003 µM; for remaining activity at 0.01 µM: peptide 0.01 µM; for remaining activity at 0.03 µM: peptide 0.03 µM
T1 construct: His6; made in house
T1 sequence (Q9UM07 whole entry): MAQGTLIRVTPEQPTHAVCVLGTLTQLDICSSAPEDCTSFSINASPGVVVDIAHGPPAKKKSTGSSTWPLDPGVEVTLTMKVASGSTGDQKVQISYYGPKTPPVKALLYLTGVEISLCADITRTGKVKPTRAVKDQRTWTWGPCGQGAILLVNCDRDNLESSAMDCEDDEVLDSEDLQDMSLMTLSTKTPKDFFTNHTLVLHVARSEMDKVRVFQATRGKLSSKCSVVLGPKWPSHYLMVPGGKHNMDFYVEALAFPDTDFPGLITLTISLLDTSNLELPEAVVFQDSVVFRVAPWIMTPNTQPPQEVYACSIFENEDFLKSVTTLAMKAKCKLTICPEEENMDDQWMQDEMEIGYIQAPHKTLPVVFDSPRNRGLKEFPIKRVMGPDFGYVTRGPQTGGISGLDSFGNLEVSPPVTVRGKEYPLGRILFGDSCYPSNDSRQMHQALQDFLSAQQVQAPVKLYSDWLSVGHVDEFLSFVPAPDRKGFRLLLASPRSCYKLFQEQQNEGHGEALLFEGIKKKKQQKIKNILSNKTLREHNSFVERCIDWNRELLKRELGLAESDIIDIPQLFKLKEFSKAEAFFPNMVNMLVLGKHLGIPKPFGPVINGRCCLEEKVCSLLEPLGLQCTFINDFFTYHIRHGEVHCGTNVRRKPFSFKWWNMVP
Procedure, shortened: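 50 nM His-PADI4 with peptide (final 0.1× the 0.03-500 µM series), 0.6 mg/mL BSA, 10 mM CaCl2 in 50 mM HEPES, 150 mM NaCl, 2 mM DTT, pH 7.5, with or without 1 h preincubation before 10 mM BAEE. After 30 min at rt, EDTA-quenched; citrulline read colorimetrically at 540 nm; mean ± SEM, ≥2 replicates.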

[2] = target: T1, PADI4; test: Incubation time-dependent COLDER assay IC50(t), Krippendorff fit
[3] = target: T2, PADI1 (Homo sapiens, UniProt Q9ULC6); test: Incubation time-dependent COLDER assay, selectivity; settings: quenched after 60 mins
T2 construct: human PADI1 (residue 1-663); made in house; host or cells: E. coli NiCo21(DE3)
T2 sequence (Q9ULC6 1-663): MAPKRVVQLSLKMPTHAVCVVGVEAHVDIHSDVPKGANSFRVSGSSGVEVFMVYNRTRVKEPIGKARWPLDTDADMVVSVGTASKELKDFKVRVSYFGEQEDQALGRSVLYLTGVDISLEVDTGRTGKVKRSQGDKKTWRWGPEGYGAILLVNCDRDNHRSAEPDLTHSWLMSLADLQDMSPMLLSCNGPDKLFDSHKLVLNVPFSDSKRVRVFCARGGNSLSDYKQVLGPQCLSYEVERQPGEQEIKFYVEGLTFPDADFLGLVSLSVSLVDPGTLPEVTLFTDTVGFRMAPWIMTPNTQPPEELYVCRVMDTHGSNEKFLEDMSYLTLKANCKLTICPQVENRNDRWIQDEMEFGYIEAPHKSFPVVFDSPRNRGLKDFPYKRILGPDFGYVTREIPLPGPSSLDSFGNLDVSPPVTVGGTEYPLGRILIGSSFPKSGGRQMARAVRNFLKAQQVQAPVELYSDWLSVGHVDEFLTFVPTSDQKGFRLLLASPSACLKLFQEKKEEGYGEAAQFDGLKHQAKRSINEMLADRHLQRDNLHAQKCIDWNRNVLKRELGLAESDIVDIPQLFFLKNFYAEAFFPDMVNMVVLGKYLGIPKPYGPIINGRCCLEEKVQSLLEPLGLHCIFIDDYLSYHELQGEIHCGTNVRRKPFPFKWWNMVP
Procedure: To determine KI and kinact of covalent peptide inhibitors, COLDER assays were used[52]. Peptide dilutions were prepared using 5-fold dilutions from 500 µM and 300 µM to 0.8 µM and 2.4 µM, respectively, at 1% DMSO in COLDER buffer (50 mM HEPES, 150 mM NaCl and 2 mM DTT, pH 7.5). The 9 peptide dilutions were added to a 96-well plate, alongside a 1% DMSO control. An equal volume of 10 mM BAEE was added to each well and the solution was homogenised by pipette mixing. This was mixed with 50 nM His-PADI4, 0.6 mg/mL BSA and 10 mM CaCl2, in COLDER buffer, to bring the final volume to 300 µL in each well. Alternatively, His-PAD1 (100 nM) /His-PADI2 (100 nM) /His-PADI3 (250 nM) were used. For assays with PADI1 and PADI3, 10 mM N^α-benzoyl-L-arginine methyl […] (BAME) was used as the substrate instead of BAEE[48],[58],[59]. At 15-minute intervals, for 5 timepoints, 50 µL of solution was taken from each well and quenched with 10 µL EDTA (300 mM). 200 µL of COLDER solution containing 20 mM diacetyl monoxime/2,3-butanedione monoxime (Merck), 0.5 mM thiosemicarbazide (Acros Organics), 2.25 M H3PO4, 4.5 M H2SO4 and 1.5 mM NH4Fe(SO4)2.12H2O was added to each well. Samples were incubated for 20 min at 95 °C before measuring absorbance at 540 nm on a CLARIOstar Plus (BMG LABTECH). IC50 values for each time point were determined using non-linear regression with GraphPad Prism. Incubation time–dependent potency IC50(t) against incubation time was fitted to the Krippendorff equation (below) to determine KI and kinact using a Python script[53],[59]. […] IC50t=KI1+S/KM⋅2−2e^−ηIC50⋅kinact⋅t/ηIC50⋅kinact⋅t−1 WhereηIC50=IC50t/KI1+S/KM+IC50t

[4] = T=0, values starred, read-out: PADI4 activity normalised to 0.1% DMSO
[5] = T=1, read-out: PADI4 activity normalised to 0.1% DMSO
[6] = Krippendorff fit of IC50 vs time

CC(C)C[C@@H]1NC(=O)[C@H](CCCCN)NC(=O)[C@H](CO)NC(=O)[C@H](CO)NC(=O)[C@H](Cc2ccc(O)cc2)NC(=O)[C@H](Cc2c[nH]cn2)NC(=O)[C@H](CCCNC(=N)CF)NC(=O)[C@H](CC(=O)O)NC(=O)[C@H](CC(C)C)NC(=O)[C@@H](Cc2ccc(O)cc2)NC(=O)CSC[C@@H](C(=O)NCC(N)=O)NC(=O)[C@H](Cc2ccc(O)cc2)NC1=O [cP4_15, yLD(2)HYSSKLYCG] ({CH2CO}-[dY]LD[Orn(fluoroacetimidoyl)]HYSSKLYCG-NH2; thioether N-12) gave an IC50 ([1]; 1 h preincubation of peptide and PADI4, 10 mM CaCl2, read-out: IC50 Values 1 h preincubation) of 52 ± 2 nM, an IC50 ([1]; no preincubation of peptide and PADI4, 10 mM CaCl2, read-out: IC50 Values 0 h preincubation) of 1600 ± 30 nM and a remaining activity at 0.003 µM [1, 4] of 95.7%. For the same molecule, the remaining activity at 0.003 µM [1, 5] was 87.4%, the remaining activity at 0.01 µM [1, 4] was 92.2% and the remaining activity at 0.01 µM [1, 5] was 88.3%. It also gave a remaining activity at 0.03 µM ([1]; T=0, read-out: PADI4 activity normalised to 0.1% DMSO) of 95.8%, a remaining activity at 0.03 µM [1, 5] of 81.5% and a remaining activity at 0.1 µM ([1]; peptide 0.1 µM, T=0, read-out: PADI4 activity normalised to 0.1% DMSO) of 88.7%. It also gave a remaining activity at 0.3 µM ([1]; peptide 0.3 µM, T=0, read-out: PADI4 activity normalised to 0.1% DMSO) of 82.7%, a remaining activity at 1 µM ([1]; peptide 1 µM, T=0, read-out: PADI4 activity normalised to 0.1% DMSO) of 61.2% and a remaining activity at 3 µM ([1]; peptide 3 µM, T=0, read-out: PADI4 activity normalised to 0.1% DMSO) of 32.3%. For the same molecule, the kinact/KI [2] was 3550 M⁻¹ s⁻¹, the IC50 ([2]; 60-minute time point, no preincubation, read-out: PADI4 IC50) was 850 nM and the IC50 ([2]; 15 mins, replicates, read-out: apparent IC50) was 4150 nM and 3690 nM and 2680 nM. The IC50 ([2]; 30 mins, replicates, read-out: apparent IC50) was 1490 nM and 1390 nM and 1520 nM, the IC50 ([2]; 45 mins, replicates, read-out: apparent IC50) was 996 nM and 1150 nM and 1210 nM and the remaining activity at 0.048 µM ([2]; 1 h, 0.048 µM, quenched after 60 mins, read-out: PADI4 activity normalised to 0.1% DMSO) was 98.8%. For the same molecule, the remaining activity at 0.08 µM ([2]; 1 h, 0.08 µM, quenched after 60 mins, read-out: PADI4 activity normalised to 0.1% DMSO) was 93.4%, the remaining activity at 0.24 µM ([2]; 1 h, 0.24 µM, quenched after 60 mins, read-out: PADI4 activity normalised to 0.1% DMSO) was 87.8% and the remaining activity at 0.4 µM ([2]; 1 h, 0.4 µM, quenched after 60 mins, read-out: PADI4 activity normalised to 0.1% DMSO) was 76.7%. The remaining activity at 1.2 µM ([2]; 1 h, 1.2 µM, quenched after 60 mins, read-out: PADI4 activity normalised to 0.1% DMSO) was 35.6%, the remaining activity at 2 µM ([2]; 1 h, 2 µM, quenched after 60 mins, read-out: PADI4 activity normalised to 0.1% DMSO) was 23.1% and the remaining activity at 6 µM ([2]; 1 h, 6 µM, quenched after 60 mins, read-out: PADI4 activity normalised to 0.1% DMSO) was 12.5%. For the same molecule, the remaining activity at 10 µM ([2]; 1 h, 10 µM, quenched after 60 mins, read-out: PADI4 activity normalised to 0.1% DMSO) was 7.1%, the IC50 ([2]; 60 mins, replicates, read-out: apparent IC50) was 809 nM and 775 nM and 965 nM and the IC50 ([2]; 75 mins, replicates, read-out: apparent IC50) was 752 nM and 784 nM and 780 nM. For the same molecule, the Ki [2, 6] was 780 ± 60 nM, the kinact [2, 6] was 0.00283 s⁻¹ and the “PADI1 activity normalised to 0.1% DMSO” value ([3]; 0.08 µM) was 100.799 and 102.269. The “PADI1 activity normalised to 0.1% DMSO” value ([3]; 0.24 µM) was 99.0011 and 78.928, the “PADI1 activity normalised to 0.1% DMSO” value ([3]; 0.4 µM) was 101.598 and 103.89 and the “PADI1 activity normalised to 0.1% DMSO” value ([3]; 1.2 µM) was 101.532 and 99.3516. The “PADI1 activity normalised to 0.1% DMSO” value ([3]; 2 µM) was 105.527 and 101.88, the “PADI1 activity normalised to 0.1% DMSO” value ([3]; 6 µM) was 100.999 and 97.3417 and the “PADI1 activity normalised to 0.1% DMSO” value ([3]; 10 µM) was 97.1365 and 102.594. The “PADI1 activity normalised to 0.1% DMSO” value ([3]; 30 µM) was 94.4062 and 95.3966 and the “PADI1 activity normalised to 0.1% DMSO” value ([3]; 50 µM) was 83.818 and 84.4392.
